According to US8003785B2 (Takeda Pharmaceutical Company Limited, priority 2008, dated 2011):

Target: T1, PLK1 (Homo sapiens, UniProt P53350)
T1 construct: Full-length, active GST-PLK1 is purified from Sf9 insect cells; made in house; host or cells: Sf9 insect cells
Experiment: Biochemical Characterization Assay: HTRF kinase assay, GST-PLK1 phosphorylation of GST-p53
Settings: GST-PLK1, GST-p53 substrate, ATP
Protocol: Biochemical Characterization Assay
Full-length, active GST-PLK1 is purified from Sf9 insect cells, and full-length GST-p53 is purified from E. coli. Anti-phospho p53 antibody is from Cell Signaling Technology. Europium-conjugated anti-rabbit antibody is from PerkinElmer Life and Analytical Sciences. APC-conjugated anti-GST antibody is from Prozyme.
Six microliters of GST-PLK1 (3 ug/mL) in Kinase Assay Buffer are then added and the solution incubated at 37° C. for 35 minutes. Six microliters of solution containing 43 mM EDTA to stop the reaction and a 1:600 dilution of anti-phospho-p53 antibody in 20 mM HEPES pH 7, 50 mM NaCl, and 0.5 mg/mL BSA (Antibody Binding Buffer) are added and the solution incubated at 37° C. for 30 minutes. […] The HTRF signal is read on an Envision reader from PerkinElmer Life and Analytical Sciences.

T1 sequence (P53350 whole entry): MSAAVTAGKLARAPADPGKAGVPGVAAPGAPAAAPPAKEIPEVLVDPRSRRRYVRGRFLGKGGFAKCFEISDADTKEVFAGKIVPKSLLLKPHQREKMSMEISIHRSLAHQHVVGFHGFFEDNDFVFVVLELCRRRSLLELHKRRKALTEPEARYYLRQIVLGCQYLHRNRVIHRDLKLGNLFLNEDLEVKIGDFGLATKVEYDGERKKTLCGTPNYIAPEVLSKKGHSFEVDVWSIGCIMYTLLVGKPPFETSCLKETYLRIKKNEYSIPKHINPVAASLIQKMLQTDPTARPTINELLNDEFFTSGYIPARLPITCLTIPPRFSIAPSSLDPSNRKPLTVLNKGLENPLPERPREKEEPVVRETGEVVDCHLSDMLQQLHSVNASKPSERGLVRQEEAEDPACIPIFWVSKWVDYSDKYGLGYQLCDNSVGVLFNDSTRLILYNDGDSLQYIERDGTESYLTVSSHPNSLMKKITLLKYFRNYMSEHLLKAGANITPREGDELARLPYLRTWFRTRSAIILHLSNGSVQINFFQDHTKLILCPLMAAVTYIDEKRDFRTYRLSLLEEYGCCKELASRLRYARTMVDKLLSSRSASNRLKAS

IC50 [µM]	SMILES
0.001 to 0.05	CN(C)CCCNC(=O)c1ccc(Nc2ncc3c(n2)N(C2CCC2)CC(F)(F)C(=O)N3C)cc1 [Example I-19, 4-(9-cyclobutyl-7,7-difluoro-5-methyl-6-oxo-6,7,8,9-tetrahydro-5H-pyrimido[4,5-b][1,4]diazepin-2-ylamino)-N-(3-dimethylamino-propyl)-benzamide]
0.001 to 0.05	CNC(=O)c1ccc(Nc2ncc3c(n2)N(C2CCCC2)CC(F)(F)C(=O)N3C)c(OC)c1 [Example I-24, 4-(9-cyclopentyl-7,7-difluoro-5-methyl-6-oxo-6,7,8,9-tetrahydro-5H-pyrimido[4,5-b][1,4]diazepin-2-ylamino)-3-methoxy-N-methyl-benzamide]
0.051 to 0.5	COc1cc(C(=O)NCC2CCCCC2)ccc1Nc1ncc2c(n1)N(C1CCCC1)CC(F)(F)C(=O)N2C [Example I-32, N-cyclohexylmethyl-4-(9-cyclopentyl-7,7-difluoro-5-methyl-6-oxo-6,7,8,9-tetrahydro-5H-pyrimido[4,5-b][1,4]diazepin-2-ylamino)-3-methoxy-benzamide]
0.001 to 0.05	COc1cc(C(=O)NCc2ccoc2)ccc1Nc1ncc2c(n1)N(C1CCCC1)CC(F)(F)C(=O)N2C [Example I-34, 4-(9-cyclopentyl-7,7-difluoro-5-methyl-6-oxo-6,7,8,9-tetrahydro-5H-pyrimido[4,5-b][1,4]diazepin-2-ylamino)-N-furan-3-ylmethyl-3-methoxy-benzamide]
0.051 to 0.5	COc1cc(C(=O)Nc2ccccc2)ccc1Nc1ncc2c(n1)N(C1CCCC1)CC(F)(F)C(=O)N2C [Example I-38, 4-(9-cyclopentyl-7,7-difluoro-5-methyl-6-oxo-6,7,8,9-tetrahydro-5H-pyrimido[4,5-b][1,4]diazepin-2-ylamino)-3-methoxy-N-phenyl-benzamide]
0.001 to 0.05	CCOCCNC(=O)c1ccc(Nc2ncc3c(n2)N(C2CCCC2)CC(F)(F)C(=O)N3C)c(OC)c1 [Example I-40, 4-(9-cyclopentyl-7,7-difluoro-5-methyl-6-oxo-6,7,8,9-tetrahydro-5H-pyrimido[4,5-b][1,4]diazepin-2-ylamino)-N-(2-ethoxy-ethyl)-3-methoxy-benzamide]
0.001 to 0.05	COc1cc(C(=O)NCCCO)ccc1Nc1ncc2c(n1)N(C1CCCC1)CC(F)(F)C(=O)N2C [Example I-41, 4-(9-cyclopentyl-7,7-difluoro-5-methyl-6-oxo-6,7,8,9-tetrahydro-5H-pyrimido[4,5-b][1,4]diazepin-2-ylamino)-N-(3-hydroxy-propyl)-3-methoxy-benzamide]
0.001 to 0.05	COc1cc(C(=O)NCc2cc(Cl)cc(Cl)c2)ccc1Nc1ncc2c(n1)N(C1CCCC1)CC(F)(F)C(=O)N2C [Example I-42, 4-(9-cyclopentyl-7,7-difluoro-5-methyl-6-oxo-6,7,8,9-tetrahydro-5H-pyrimido[4,5-b][1,4]diazepin-2-ylamino)-N-(3,5-dichloro-benzyl)-3-methoxy-benzamide]
0.001 to 0.05	COc1cc(C(=O)N[C@H]2CCC[C@H]2C(N)=O)ccc1Nc1ncc2c(n1)N(C1CCCC1)CC(F)(F)C(=O)N2C [Example I-44, N-[(1S,2R)-(2-carbamoyl-cyclopentyl)]-4-(9-cyclopentyl-7,7-difluoro-5-methyl-6-oxo-6,7,8,9-tetrahydro-5H-pyrimido[4,5-b][1,4]diazepin-2-ylamino)-3-methoxy-benzamide]

More lines, now with the values behind:

SMILES	IC50 [µM]
CN1C(=O)C(F)(F)CN(C2CCC2)c2nc(Nc3ccc(C(=O)N4CCC(N)CC4)cc3)ncc21 [Example I-15, 2-[4-(4-amino-piperidine-1-carbonyl)-phenylamino]-9-cyclobutyl-7,7-difluoro-5-methyl-5,7,8,9-tetrahydro-pyrimido[4,5-b][1,4]diazepin-6-one]	0.051 to 0.5
CN1CCC(NC(=O)c2ccc(Nc3ncc4c(n3)N(C3CCC3)CC(F)(F)C(=O)N4C)cc2)CC1 [Example I-16, 4-(9-cyclobutyl-7,7-difluoro-5-methyl-6-oxo-6,7,8,9-tetrahydro-5H-pyrimido[4,5-b][1,4]diazepin-2-ylamino)-N-(1-methyl-piperidin-4-yl)-benzamide]	0.001 to 0.05
CN1C(=O)C(F)(F)CN(C2CCC2)c2nc(Nc3ccc(C(=O)NC4CCOCC4)cc3)ncc21 [Example I-17, 4-(9-cyclobutyl-7,7-difluoro-5-methyl-6-oxo-6,7,8,9-tetrahydro-5H-pyrimido[4,5-b][1,4]diazepin-2-ylamino)-N-(tetrahydro-pyran-4-yl)-benzamide]	0.001 to 0.05
CN(C)CCNC(=O)c1ccc(Nc2ncc3c(n2)N(C2CCC2)CC(F)(F)C(=O)N3C)cc1 [Example I-18, 4-(9-cyclobutyl-7,7-difluoro-5-methyl-6-oxo-6,7,8,9-tetrahydro-5H-pyrimido[4,5-b][1,4]diazepin-2-ylamino)-N-(2-dimethylamino-ethyl)-benzamide]	0.001 to 0.05
COc1cc(C(N)=O)ccc1Nc1ncc2c(n1)N(C1CCCC1)CC(F)(F)C(=O)N2C [Example I-23, 4-(9-cyclopentyl-7,7-difluoro-5-methyl-6-oxo-6,7,8,9-tetrahydro-5H-pyrimido[4,5-b][1,4]diazepin-2-ylamino)-3-methoxy-benzamide]	0.001 to 0.05
COc1cc(C(=O)NC(C)C)ccc1Nc1ncc2c(n1)N(C1CCCC1)CC(F)(F)C(=O)N2C [Example I-25, 4-(9-cyclopentyl-7,7-difluoro-5-methyl-6-oxo-6,7,8,9-tetrahydro-5H-pyrimido[4,5-b][1,4]diazepin-2-ylamino)-N-isopropyl-3-methoxy-benzamide]	0.001 to 0.05
COc1cc(C(=O)NC2CC2)ccc1Nc1ncc2c(n1)N(C1CCCC1)CC(F)(F)C(=O)N2C [Example I-26, 4-(9-cyclopentyl-7,7-difluoro-5-methyl-6-oxo-6,7,8,9-tetrahydro-5H-pyrimido[4,5-b][1,4]diazepin-2-ylamino)-N-cyclopropyl-3-methoxy-benzamide]	0.001 to 0.05
COc1cc(C(=O)NC2CCCCC2)ccc1Nc1ncc2c(n1)N(C1CCCC1)CC(F)(F)C(=O)N2C [Example I-27, N-cyclohexyl-4-(9-cyclopentyl-7,7-difluoro-5-methyl-6-oxo-6,7,8,9-tetrahydro-5H-pyrimido[4,5-b][1,4]diazepin-2-ylamino)-3-methoxy-benzamide]	0.001 to 0.05
COCCNC(=O)c1ccc(Nc2ncc3c(n2)N(C2CCCC2)CC(F)(F)C(=O)N3C)c(OC)c1 [Example I-28, 4-(9-cyclopentyl-7,7-difluoro-5-methyl-6-oxo-6,7,8,9-tetrahydro-5H-pyrimido[4,5-b][1,4]diazepin-2-ylamino)-3-methoxy-N-(2-methoxy-ethyl)-benzamide]	0.001 to 0.05
COCCCNC(=O)c1ccc(Nc2ncc3c(n2)N(C2CCCC2)CC(F)(F)C(=O)N3C)c(OC)c1 [Example I-29, 4-(9-cyclopentyl-7,7-difluoro-5-methyl-6-oxo-6,7,8,9-tetrahydro-5H-pyrimido[4,5-b][1,4]diazepin-2-ylamino)-3-methoxy-N-(3-methoxy-propyl)-benzamide]	0.001 to 0.05
COc1cc(C(=O)NCCO)ccc1Nc1ncc2c(n1)N(C1CCCC1)CC(F)(F)C(=O)N2C [Example I-30, 4-(9-cyclopentyl-7,7-difluoro-5-methyl-6-oxo-6,7,8,9-tetrahydro-5H-pyrimido[4,5-b][1,4]diazepin-2-ylamino)-N-(2-hydroxy-ethyl)-3-methoxy-benzamide]	0.001 to 0.05
COc1cc(C(=O)NCC(F)(F)F)ccc1Nc1ncc2c(n1)N(C1CCCC1)CC(F)(F)C(=O)N2C [Example I-31, 4-(9-cyclopentyl-7,7-difluoro-5-methyl-6-oxo-6,7,8,9-tetrahydro-5H-pyrimido[4,5-b][1,4]diazepin-2-ylamino)-3-methoxy-N-(2,2,2-trifluoro-ethyl)-benzamide]	0.001 to 0.05
COc1cc(C(=O)NCc2ccsc2)ccc1Nc1ncc2c(n1)N(C1CCCC1)CC(F)(F)C(=O)N2C [Example I-33, 4-(9-cyclopentyl-7,7-difluoro-5-methyl-6-oxo-6,7,8,9-tetrahydro-5H-pyrimido[4,5-b][1,4]diazepin-2-ylamino)-3-methoxy-N-thiophen-3-ylmethyl-benzamide]	0.051 to 0.5
COc1cc(C(=O)NCc2ccccc2)ccc1Nc1ncc2c(n1)N(C1CCCC1)CC(F)(F)C(=O)N2C [Example I-35, N-benzyl-4-(9-cyclopentyl-7,7-difluoro-5-methyl-6-oxo-6,7,8,9-tetrahydro-5H-pyrimido[4,5-b][1,4]diazepin-2-ylamino)-3-methoxy-benzamide]	0.051 to 0.5
COc1cc(C(=O)NCc2ccc(C(F)(F)F)cc2)ccc1Nc1ncc2c(n1)N(C1CCCC1)CC(F)(F)C(=O)N2C [Example I-36, 4-(9-cyclopentyl-7,7-difluoro-5-methyl-6-oxo-6,7,8,9-tetrahydro-5H-pyrimido[4,5-b][1,4]diazepin-2-ylamino)-3-methoxy-N-(4-trifluoromethyl-benzyl)-benzamide]	0.5 to 5
COc1cc(C(=O)NCCCCO)ccc1Nc1ncc2c(n1)N(C1CCCC1)CC(F)(F)C(=O)N2C [Example I-39, 4-(9-cyclopentyl-7,7-difluoro-5-methyl-6-oxo-6,7,8,9-tetrahydro-5H-pyrimido[4,5-b][1,4]diazepin-2-ylamino)-N-(4-hydroxy-butyl)-3-methoxy-benzamide]	0.001 to 0.05
COc1cc(C(=O)NCCc2ccc3c(c2)OCO3)ccc1Nc1ncc2c(n1)N(C1CCCC1)CC(F)(F)C(=O)N2C [Example I-43, N-(2-benzo[1,3]dioxol-5-yl-ethyl)-4-(9-cyclopentyl-7,7-difluoro-5-methyl-6-oxo-6,7,8,9-tetrahydro-5H-pyrimido[4,5-b][1,4]diazepin-2-ylamino)-3-methoxy-benzamide]	0.051 to 0.5
